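Cells were grown in 96-well plates and exposed to each compound for 48 hours at five concentrations; endpoints were interpolated linearly between bracketing concentrations, or set to the highest concentration if not reached. At the GI50, growth is halved. TGI is the concentration that stops growth completely.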
Legend:
Test in all cases: NCI-60 cell line screen, 48 h
LOX IMVI melanoma = system: LOX IMVI melanoma
A549 NSCLC = system: A549 NSCLC
MCF7 breast = system: MCF7 breast
NCI-H460 lung = system: NCI-H460 lung
SF-295 CNS = system: SF-295 CNS
NCI-H522 lung = system: NCI-H522 lung
TK-10 renal = system: TK-10 renal
BT-549 breast = system: BT-549 breast

SMILES	GI50 (LOX IMVI melanoma)	TGI (LOX IMVI melanoma)	GI50 (A549 NSCLC)	TGI (A549 NSCLC)	GI50 (MCF7 breast)	TGI (MCF7 breast)	GI50 (NCI-H460 lung)	TGI (NCI-H460 lung)	GI50 (SF-295 CNS)	TGI (SF-295 CNS)	GI50 (NCI-H522 lung)	TGI (NCI-H522 lung)	GI50 (TK-10 renal)	TGI (TK-10 renal)	GI50 (BT-549 breast)	TGI (BT-549 breast)
O=c1c2c(=NCCN3CCCC3)cc3c(=O)n(CCCN4CCOCC4)c(=O)c4ccc(c(O)n1CCCN1CCOCC1)c2c4-3	0.192 µM	0.443 µM	0.0441 µM	3.44 µM	0.0752 µM	1.13 µM	0.0791 µM	1.08 µM	0.231 µM	0.84 µM	0.102 µM	0.438 µM	0.195 µM	1.62 µM	0.917 µM	2.99 µM
OCCn1cc(-c2cnc3nnn(Cc4ccc5ncccc5c4)c3n2)cn1	> 100 µM	> 100 µM	> 100 µM	> 100 µM	> 100 µM	> 100 µM	> 100 µM	> 100 µM	–	> 100 µM	> 100 µM	> 100 µM	> 100 µM	> 100 µM	> 100 µM	> 100 µM
COc1cc(-c2nc(-c3ccc(-c4nc5ccc(F)cc5[nH]4)cc3)no2)cc(OC)c1OC	1.65 µM	3.73 µM	3.42 µM	14.6 µM	2.88 µM	13.5 µM	2.97 µM	12.5 µM	2.31 µM	7.02 µM	3.04 µM	8.98 µM	8.27 µM	34.1 µM	3.49 µM	11.1 µM
COc1cc(OC)c(F)c(COc2cnc(Nc3cnn(CCO)c3)nc2)c1F	0.526 µM	> 22.6 µM	1.37 µM	> 100 µM	0.417 µM	> 100 µM	0.444 µM	> 100 µM	0.649 µM	> 29.8 µM	0.341 µM	1.65 µM	1.01 µM	> 27.9 µM	0.177 µM	> 100 µM
CCCCCCCCNC(C)C(O)c1ccc(SC(C)C)cc1 (centres undefined)	1.54 µM	2.92 µM	–	–	1.8 µM	3.32 µM	1.85 µM	3.56 µM	1.68 µM	3.2 µM	1.43 µM	2.95 µM	1.7 µM	3.13 µM	1.82 µM	3.33 µM
Fc1cccc(Cl)c1Cn1c(-c2c(F)cccc2Cl)nc2ccccc21	20.5 µM	42.2 µM	11.6 µM	33.7 µM	20 µM	57.8 µM	13.1 µM	34.1 µM	16.8 µM	46.8 µM	13.3 µM	44.5 µM	15.6 µM	39.8 µM	25.4 µM	53.2 µM
COc1cc(C(=O)O/N=C(\N)Cc2cccc3ccccc23)cc(OC)c1OC	3.41 µM	16.9 µM	7.67 µM	23.8 µM	2.57 µM	8.81 µM	2.78 µM	7.81 µM	3.49 µM	13.7 µM	1.87 µM	3.7 µM	20.7 µM	35.2 µM	14.6 µM	29.7 µM
